In US9556223B2, “Antimicrobial compounds” (priority 2008, dated 2017):
Converted amounts (≈) assume the structure as drawn.

Assays:
C. albicans = assay type: cell-based
[1] = test system: Staphylococcus aureus, strain ATCC 25923; assay type: cell-based
Experimental: (§1) MIC determinations on Staphylococcus aureus, strain ATCC 25923, Methicillin resistant Staphylococcus aureus (MRSA) strain ATCC 33591 and Methicillin resistant Staphylococcus epidermidis (MRSE) strain ATCC 27626 were performed by Toslab AS using standard methods. Amsterdam, D. (1996) Susceptibility testing of antimicrobials in liquid media, in Antibiotics in Laboratory Medicine. 4th ed (Lorian, V., Ed.) pp 75-78, Williams and Wilkins Co; Baltimore.

S. pyogenes = assay type: cell-based
E. coli = assay type: cell-based
P. aeruginosa = assay type: cell-based
[2] = test system: Methicillin resistant Staphylococcus aureus (MRSA) strain ATCC 33591; assay type: cell-based
Experimental: as §1

[3] = test system: Staphylococcus haemolyticus; assay: Susceptibility testing under planktonic growth condition (MIC); settings: E-test (rifampicin: broth microdilution)
[4] = test system: Staphylococcus epidermidis; assay: as above; settings: E-test (rifampicin: broth microdilution)
Staphylococcus aureus = assay: as above; settings: E-test (rifampicin: broth microdilution)
[5] = test system: S. haemolyticus TUH 51-07 biofilm; assay: Biofilm imaging, LIVE/DEAD staining, confocal laser scanning microscopy; assay type: cell-based
Experimental: One ml aliquots of MHIIB-diluted overnight culture was used to grow S. haemolyticus TUH 51-07 biofilm on plastic coverslides (Thermanox, cellculture treated on one side, NUNC) in 24-well dishes (Falcon 3047, Becton Dickinson, N.J., USA) for 24 h. The coverslides were then washed carefully with PBS, moved to a new plate and treated for 24 h with tetracycline 50 mg/L and 500 mg/L, vancomycin 50 mg/L and 500 mg/L, or Compound […] and 500 mg/L. The coverslides were washed again with […] and stained with a LIVE/DEAD kit (Invitrogen Molecular Probes, Eugene, Oreg., USA) following the manufacturer's instructions. This stain contains SYTO 9 (green fluorescent) and propidium iodide (PI; red fluorescent), both binding to DNA. When used alone, the SYTO 9 generally stains all bacteria in a population; both those with intact and those with damaged membranes. In contrast, PI penetrates only bacteria with damaged membranes, causing a reduction in the SYTO 9 stain green fluorescence when both dyes are present. We examined treated and untreated biofilms with a Leica TCS SP5 (Leica Microsystems Cms Gmbh, Mannheim, Germany) confocal laser scanning microscope (CLSM). Images were obtained using a 63×1.2 NA HCX PL APO water immersion lens. For detection of SYTO9 (green channel), we used the 488 nm line of the argon laser and a detection bandwidth of 495-515 nm. […]

[6] = strain SH TUH 51-07, blood culture
[7] = strain TUH 51-03, blood culture
[8] = strain SE RP62A ATCC 35984, blood culture
[9] = strain SE TUH 08-16, blood culture

Compound | MIC C. albicans (C. albicans) [µg/mL] | MIC S. aureus [1] [µg/mL] | MIC S. pyogenes (S. pyogenes) [µg/mL] | MIC E. coli (E. coli) [µg/mL] | MIC P. aeruginosa (P. aeruginosa) [µg/mL] | MIC MRSA [2] [µg/mL] | MIC antibiotics [3, 6] [µg/mL] | MIC antibiotics [3, 7] [µg/mL] | MIC antibiotics [4, 8] [µg/mL] | MIC antibiotics [4, 9] [µg/mL] | MIC antibiotics (Staphylococcus aureus; strain SA PIA 9, joint fluid) [µg/mL] | MIC antibiotics (Staphylococcus aureus; strain SA PIA90, joint fluid) [µg/mL] | LIVE/DEAD staining of biofilm cells (green live, red dead) ([5]; 24 h treatment at 500 mg/L) | LIVE/DEAD staining of biofilm cells (green live, red dead) ([5]; 24 h treatment at 50 mg/L)
CCCCCCCCCCCCCCCCNC(=O)[C@H](CCCNC(=N)N)NC(=O)[C@H](Cc1c(C(C)(C)C)[nH]c2c(C(C)(C)C)cc(C(C)(C)C)cc12)NC(=O)[C@@H](N)CCCNC(=N)N [Compound 5] | >100 | 5 (≈ 5.5 µM) | 6 (≈ 6.61 µM) | >100 | >100 | – | – | – | – | – | – | – | – | –
CC(C)(C)c1cc(C(C)(C)C)c2[nH]c(C(C)(C)C)c(C[C@H](NC(=O)[C@@H](N)CCCNC(=N)N)C(=O)N[C@@H](CCCNC(=N)N)C(=O)NC3CCCC3)c2c1 [Compound 8] | – | – | – | – | – | <15 | – | – | – | – | – | – | – | –
CC(=O)NC[C@H]1CN(c2ccc(N3CCOCC3)c(F)c2)C(=O)O1 [LZD, linezolid] | – | – | – | – | – | – | 0.5 (≈ 1.48 µM) | 0.5 (≈ 1.48 µM) | 1 (≈ 2.96 µM) | 2 (≈ 5.93 µM) | 2 (≈ 5.93 µM) | 1 (≈ 2.96 µM) | – | –
Cc1onc(-c2ccccc2)c1C(=O)N[C@@H]1C(=O)N2[C@@H]1SC(C)(C)[C@@H]2C(=O)O [OXA, oxacillin] | – | – | – | – | – | – | >256 | >256 | 8 (≈ 19.9 µM) | 16 (≈ 39.9 µM) | 1 (≈ 2.49 µM) | 1 (≈ 2.49 µM) | – | –
CO[C@H]1/C=C/O[C@@]2(C)Oc3c(C)c(O)c4c(O)c(c(/C=N/N5CCN(C)CC5)c(O)c4c3C2=O)NC(=O)/C(C)=C\C=C\[C@H](C)[C@H](O)[C@@H](C)[C@@H](O)[C@@H](C)[C@H](OC(C)=O)[C@@H]1C [RIF, rifampicin] | – | – | – | – | – | – | 0.016 (≈ 0.0194 µM) | <0.016 | <0.016 | 0.016 (≈ 0.0194 µM) | <0.016 | 0.016 (≈ 0.0194 µM) | – | –
CN(C)[C@@H]1C(=O)C(C(N)=O)=C(O)[C@@]2(O)C(=O)C3=C(O)c4c(O)cccc4[C@@](C)(O)[C@H]3C[C@@H]12 [TET, tetracycline] | – | – | – | – | – | – | 0.5 (≈ 1.13 µM) | 1 (≈ 2.25 µM) | 0.5 (≈ 1.13 µM) | 2 (≈ 4.5 µM) | 0.5 (≈ 1.13 µM) | 0.5 (≈ 1.13 µM) | a significant part of the cells are still green indicating live bacteria with intact cell membrane | –
CN[C@H](CC(C)C)C(=O)N[C@H]1C(=O)N[C@@H](CC(N)=O)C(=O)N[C@H]2C(=O)N[C@H]3C(=O)N[C@H](C(=O)N[C@H](C(=O)O)c4cc(O)cc(O)c4-c4cc3ccc4O)[C@H](O)c3ccc(c(Cl)c3)Oc3cc2cc(c3O[C@@H]2O[C@H](CO)[C@@H](O)[C@H](O)[C@H]2O[C@H]2C[C@](C)(N)[C@H](O)[C@H](C)O2)Oc2ccc(cc2Cl)[C@H]1O [VAN, vancomycin] | – | – | – | – | – | – | 2 (≈ 1.38 µM) | 4 (≈ 2.76 µM) | 4 (≈ 2.76 µM) | 2 (≈ 1.38 µM) | 2 (≈ 1.38 µM) | 2 (≈ 1.38 µM) | – | predominantly green cells (live organisms)
gentamicin | – | – | – | – | – | – | 64 | 64 | 8 | 256 | 1 | 0.5 | – | –
